Measurements as given in patent publication US7960389B2, “4(phenyl-piperazinyl-methyl) benzamide derivatives and their use for the treatment of pain or gastrointestinal disorders” (priority 2002, dated 2011).
Like-named read-outs stand apart in the source and are kept apart here.

Columns and labels:
[1] = molecular target: T1, human δ receptors (Homo sapiens, UniProt P41143); test: Human δ receptor functional assay (GTP[γ]35S binding, HEK-293S cell membranes); format: biochemical; details: for Emax: relative to standard δ agonist SNC80, receptors expressed at higher levels, read-out: Human δ % EMax (high)
T1 construct: expressed in transfected cells; host or cells: human 293S (HEK-293S) cells
Method: (§1) • A. Human 293S cells expressing cloned human κ, δ and μ receptors and neomycin resistance are grown in suspension at 37° C. and 5% CO2 in shaker flasks containing calcium-free DMEM10% FBS, 5% BCS, 0.1% Pluronic F-68, and 600 μg/ml geneticin. • B. Rat brains are weighed and rinsed in ice-cold PBS (containing 2.5 mM EDTA, pH 7.4). The brains are homogenized with a polytron for 30 sec (rat) in ice-cold lysis buffer (50 mM Tris, pH 7.0, 2.5 mM EDTA, with phenylmethylsulfonyl fluoride added just prior use to […] from a 0.5M stock in DMSO:ethanol). Membrane Preparation
Cells are pelleted and resuspended in lysis buffer (50 mM Tris, pH 7.0, 2.5 mM EDTA, with PMSF added just prior to use to 0.1 mM from a 0.1 M stock in ethanol), incubated on ice for 15 min, then homogenized with a polytron for 30 sec. The suspension is spun at 1000 g (max) for 10 min at 4° C. The supernatant is saved on ice and the pellets resuspended and spun as before. The supernatants from both spins are combined and spun at 46,000 g(max) for 30 min. The pellets are resuspended in cold Tris buffer (50 mM Tris/Cl, pH 7.0) and spun again. The final pellets are resuspended in membrane buffer (50 mM Tris, 0.32 M sucrose, pH 7.0). Aliquots (1 ml) in polypropylene tubes are frozen in dry ice/ethanol and stored at −70° C. until use. The protein concentrations are determined by a modified Lowry assay with sodium dodecyl sulfate.
(§2) The agonist activity of the compounds is measured by determining the degree to which the compounds receptor complex activates the binding of GTP to G-proteins to which the receptors are coupled. In the GTP binding assay, GTP[γ]^35S is combined with test compounds and membranes from HEK-293S cells expressing the cloned human opioid receptors or from homogenised rat and mouse brain. Agonists stimulate GTP[γ]^35S binding in these membranes. The EC50 and Emax values of compounds are determined from dose-response curves. Right shifts of the dose response curve by the delta antagonist naltrindole are performed to verify that agonist activity is mediated through delta receptors. For human δ receptor functional assays, EC50 (low) is measured when the human δ receptors used in the assay were expressed at lower levels in comparison with those used in determining EC50 (high). The Emax values were determined in relation to the standard δ agonist SNC80, i.e., higher than 100% is a compound that have better efficacy than SNC80.

[2] = molecular target: T2, δ receptors in rat brain membranes (Rattus norvegicus, UniProt P33533); test: Rat brain functional assay (GTPγ35S binding, rat brain membranes); format: biochemical; details: Table 1, relative to SNC80
T2 construct: Rat brain membranes are thawed at 37° C; from tissue; host or cells: rat brain homogenate membranes
Method: as §1, §2
Rat brain membranes are thawed at 37° C., passed 3 times through a 25-gauge blunt-end needle and diluted in the GTPγS binding (50 mM Hepes, 20 mM NaOH, 100 mM NaCl, 1 mM EDTA, 5 mM MgCl2, pH 7.4, Add fresh: 1 mM DTT, 0.1% BSA). 120 μM GDP final is added membranes dilutions. […] The basal and maximal stimulated binding are determined in absence and presence of 3 μM SNC-80

[3] = molecular target: T1, human δ receptors; test: Binding assay, membranes of human 293S cells expressing cloned human δ receptors
[4] = molecular target: T3, human κ receptors (Homo sapiens, UniProt P41145); test: Binding assay, membranes of human 293S cells expressing cloned human κ receptors
T3 construct: expressed in transfected cells; host or cells: human 293S cells
T3 sequence (P41145 whole entry): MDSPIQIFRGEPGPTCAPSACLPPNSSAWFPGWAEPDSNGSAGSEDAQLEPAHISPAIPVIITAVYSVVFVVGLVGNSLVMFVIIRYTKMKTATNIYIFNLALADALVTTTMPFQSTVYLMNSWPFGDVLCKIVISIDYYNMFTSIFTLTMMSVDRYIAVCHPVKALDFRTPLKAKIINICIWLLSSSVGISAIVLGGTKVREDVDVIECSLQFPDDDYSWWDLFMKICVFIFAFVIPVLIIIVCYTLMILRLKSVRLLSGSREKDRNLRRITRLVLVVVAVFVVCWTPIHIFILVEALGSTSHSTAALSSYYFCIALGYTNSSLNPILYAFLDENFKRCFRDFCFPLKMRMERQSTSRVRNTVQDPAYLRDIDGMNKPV

T1 sequence (P41143 whole entry): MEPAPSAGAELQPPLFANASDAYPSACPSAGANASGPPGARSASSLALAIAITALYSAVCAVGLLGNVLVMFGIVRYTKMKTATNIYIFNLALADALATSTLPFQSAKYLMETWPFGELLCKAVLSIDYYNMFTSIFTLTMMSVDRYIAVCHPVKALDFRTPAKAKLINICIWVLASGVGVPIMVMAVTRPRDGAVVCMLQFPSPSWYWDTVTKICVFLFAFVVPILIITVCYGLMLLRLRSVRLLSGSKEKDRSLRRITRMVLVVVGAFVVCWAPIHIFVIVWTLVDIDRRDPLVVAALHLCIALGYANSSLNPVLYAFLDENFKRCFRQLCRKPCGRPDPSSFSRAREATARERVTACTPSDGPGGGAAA
T2 sequence (P33533 whole entry): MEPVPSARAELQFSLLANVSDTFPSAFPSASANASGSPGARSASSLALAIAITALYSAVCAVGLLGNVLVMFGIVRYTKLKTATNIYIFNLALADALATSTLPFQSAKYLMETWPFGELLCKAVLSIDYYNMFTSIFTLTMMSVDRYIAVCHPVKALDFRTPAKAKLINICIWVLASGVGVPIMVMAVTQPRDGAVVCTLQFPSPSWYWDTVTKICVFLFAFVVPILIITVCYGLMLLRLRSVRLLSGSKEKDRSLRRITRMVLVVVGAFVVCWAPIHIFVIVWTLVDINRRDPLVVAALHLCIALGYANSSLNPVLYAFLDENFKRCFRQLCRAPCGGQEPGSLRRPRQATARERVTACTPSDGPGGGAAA

| SMILES | EC50 [1] | Emax ([1]; Table 1) | Emax [2] | IC50 [3] | IC50 [4] | EC50 ([1]; Table 1, human δ receptors expressed at higher levels, read-out: Human δ EC50 (high)) | IC50 ([3]; Table 1, displacement of radioactive δ receptor ligand, read-out: Human δ IC50) |
| --- | --- | --- | --- | --- | --- | --- | --- |
| CCN(CC)C(=O)c1ccc([C@@H](c2cccc(NC(=O)OC)c2)N2CCN(Cc3cccs3)CC2)cc1 [Compound 3, S-Methyl 3-{{4-[(diethylamino)carbonyl]phenyl}[4-(thien-2-ylmethyl)piperazin-1-yl]methyl}phenylcarbamate] | 0.55 to 1.93 nM | 89 to 102% | 135 to 170% | 0.25 to 0.74 nM |  |  |  |
| CCN(CC)C(=O)c1ccc([C@H](c2cccc(NC(=O)OC)c2)N2CCN(Cc3ncc[nH]3)CC2)cc1 [Compound 11, R-Methyl 3-{{4-[(diethylamino)carbonyl]phenyl}[4-(1H-imidazol-2-ylmethyl)piperazin-1-yl]methyl}phenylcarbamate] |  | 89 to 102% | 135 to 170% |  | 247 to 1640 nM | 0.55 to 1.93 nM | 0.25 to 0.74 nM |
| CCN(CC)C(=O)c1ccc([C@@H](c2cccc(NC(=O)OC)c2)N2CCN(Cc3ccoc3)CC2)cc1 [Compound 9] | 0.55 to 1.93 nM | 89 to 102% | 135 to 170% | 0.25 to 0.74 nM |  |  |  |
| CCN(CC)C(=O)c1ccc([C@H](c2cccc(NC(=O)OC)c2)N2CCN(Cc3ccccc3)CC2)cc1 [Compound 1, R-Methyl 3-[(4-[(diethylamino)carbonyl]phenyl)(4-benzyl-piperazin-1-yl)methyl]phenylcarbamate] | 0.55 to 1.93 nM | 89 to 102% | 135 to 170% | 0.25 to 0.74 nM |  |  |  |
| CCN(CC)C(=O)c1ccc([C@@H](c2cccc(NC(=O)OC)c2)N2CCN(Cc3ccco3)CC2)cc1 [Compound 7, S-Methyl 3-{{4-[(diethylamino)carbonyl]phenyl}[4-(2-furylmethyl)piperazin-1-yl]methyl}phenylcarbamate] | 0.55 to 1.93 nM | 89 to 102% | 135 to 170% | 0.25 to 0.74 nM |  |  |  |
| CCN(CC)C(=O)c1ccc([C@H](c2cccc(NC(=O)OC)c2)N2CCN(Cc3ccsc3)CC2)cc1 [Compound 6, R-Methyl 3-{{4-[(diethylamino)carbonyl]phenyl}[4-(thien-3-ylmethyl)piperazin-1-yl]methyl}phenylcarbamate] | 0.55 to 1.93 nM | 89 to 102% | 135 to 170% | 0.25 to 0.74 nM |  |  |  |
| CCN(CC)C(=O)c1ccc([C@@H](c2cccc(NC(=O)OC)c2)N2CCN(Cc3ccsc3)CC2)cc1 [Compound 5, S-Methyl 3-{{4-[(diethylamino)carbonyl]phenyl}[4-(thien-3-ylmethyl)piperazin-1-yl]methyl}phenylcarbamate] | 0.55 to 1.93 nM | 89 to 102% | 135 to 170% | 0.25 to 0.74 nM |  |  |  |
| CCN(CC)C(=O)c1ccc([C@H](c2cccc(NC(=O)OC)c2)N2CCN(Cc3cccs3)CC2)cc1 [Compound 4, R-Methyl 3-{{4-[(diethylamino)carbonyl]phenyl}[4-(thien-2-ylmethyl)piperazin-1-yl]methyl}phenylcarbamate] | 0.55 to 1.93 nM | 89 to 102% | 135 to 170% | 0.25 to 0.74 nM |  |  |  |
| CCN(CC)C(=O)c1ccc([C@H](c2cccc(NC(=O)OC)c2)N2CCN(Cc3ccoc3)CC2)cc1 [Compound 10, R-Methyl 3-{{4-[(diethylamino)carbonyl]phenyl}[4-(3-furylmethyl)piperazin-1-yl]methyl}phenylcarbamate] | 0.55 to 1.93 nM | 89 to 102% | 135 to 170% | 0.25 to 0.74 nM |  |  |  |
| CCN(CC)C(=O)c1ccc([C@@H](c2cccc(NC(=O)OC)c2)N2CCN(Cc3ccccc3)CC2)cc1 [Compound 2, S-Methyl 3-[(4-[(diethylamino)carbonyl]phenyl)(4-benzyl-piperazin-1-yl)methyl]phenylcarbamate] | 0.55 to 1.93 nM | 89 to 102% | 135 to 170% | 0.25 to 0.74 nM |  |  |  |
| CCN(CC)C(=O)c1ccc([C@H](c2cccc(NC(=O)OC)c2)N2CCN(Cc3ccco3)CC2)cc1 [Compound 8, R-Methyl 3-{{4-[(diethylamino)carbonyl]phenyl}[4-(2-furylmethyl)piperazin-1-yl]methyl}phenylcarbamate] | 0.55 to 1.93 nM | 89 to 102% | 135 to 170% | 0.25 to 0.74 nM |  |  |  |
